In patent publication US12077503B2, “Substituted cyclic amides and their use as herbicides” (FMC CORPORATION, priority 2015, dated 2024):

Key:
Format in all cases: in vivo
[1] = tested on: barnyardgrass (Echinochloa crus-galli); assay: Test A preemergence; settings: for Plant response rating, Barnyardgrass: 125 g ai/ha, preemergence, 0 to 100 scale (0 no effect, 100 complete control); for Barnyardgrass plant response rating (0 to 100 scale): Preemergence, 0 is no effect, 100 is complete control
How it was run: (§1)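 In a loam soil and sand blend, planted seeds got a preemergence directed soil spray, and young plants at the one- to two-leaf stage, 2–10 cm high, got a postemergence application; ~10 d greenhouse hold; injury rated visually, 0 = none, 100 = complete control.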

[2] = tested on: corn (Zea mays); assay: Test A preemergence; settings: for Plant response rating, Corn: 125 g ai/ha, preemergence, 0 to 100 scale (0 no effect, 100 complete control); for Corn plant response rating (0 to 100 scale): Preemergence, 0 is no effect, 100 is complete control
How it was run: as §1

[3] = tested on: crabgrass, large (Digitaria sanguinalis); assay: Test A preemergence; settings: for Plant response rating, Crabgrass, Large: 125 g ai/ha, preemergence, 0 to 100 scale (0 no effect, 100 complete control); for Crabgrass, Large plant response rating (0 to 100 scale): Preemergence, 0 is no effect, 100 is complete control
How it was run: as §1

[4] = tested on: giant foxtail (Setaria faberii); assay: Test A preemergence; settings: for Plant response rating, Foxtail, Giant: 125 g ai/ha, preemergence, 0 to 100 scale (0 no effect, 100 complete control); for Foxtail, Giant plant response rating (0 to 100 scale): Preemergence, 0 is no effect, 100 is complete control
How it was run: as §1

[5] = tested on: morningglory (Ipomoea spp.); assay: Test A preemergence; settings: for Plant response rating, Morningglory: 125 g ai/ha, preemergence, 0 to 100 scale (0 no effect, 100 complete control); for Morningglory plant response rating (0 to 100 scale): Preemergence, 0 is no effect, 100 is complete control
How it was run: as §1

[6] = tested on: pigweed (Amaranthus retroflexus); assay: Test A preemergence; settings: for Plant response rating, Pigweed: 125 g ai/ha, preemergence, 0 to 100 scale (0 no effect, 100 complete control); for Pigweed plant response rating (0 to 100 scale): Preemergence, 0 is no effect, 100 is complete control
[7] = tested on: velvetleaf (Abutilon theophrasti); assay: Test A preemergence; settings: for Plant response rating, Velvetleaf: 125 g ai/ha, preemergence, 0 to 100 scale (0 no effect, 100 complete control); for Velvetleaf plant response rating (0 to 100 scale): Preemergence, 0 is no effect, 100 is complete control
How it was run: as §1

[8] = tested on: wheat (Triticum aestivum); assay: Test A preemergence; settings: for Plant response rating, Wheat: 125 g ai/ha, preemergence, 0 to 100 scale (0 no effect, 100 complete control); for Wheat plant response rating (0 to 100 scale): Preemergence, 0 is no effect, 100 is complete control
How it was run: as §1

[9] = tested on: barnyardgrass (Echinochloa crus-galli); assay: Test A postemergence
How it was run: as §1

[10] = tested on: corn (Zea mays); assay: Test A postemergence
How it was run: as §1

[11] = tested on: crabgrass, large (Digitaria sanguinalis); assay: Test A postemergence
How it was run: as §1

[12] = tested on: giant foxtail (Setaria faberii); assay: Test A postemergence
How it was run: as §1

[13] = tested on: morningglory (Ipomoea spp.); assay: Test A postemergence
How it was run: as §1

[14] = tested on: pigweed (Amaranthus retroflexus); assay: Test A postemergence
How it was run: as §1

[15] = tested on: velvetleaf (Abutilon theophrasti); assay: Test A postemergence
How it was run: as §1

[16] = tested on: wheat (Triticum aestivum); assay: Test A postemergence
How it was run: as §1

[17] = tested on: barnyardgrass (Echinochloa crus-galli); assay: Test B flooded paddy test; settings: Flood, 1000 g ai/ha; 0 to 100 scale where 0 is no effect and 100 is complete control; 13 to 15 d
How it was run: (§2)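 Plants at 2-leaf stage flooded to 3 cm above soil, with compounds applied directly to paddy water and that depth maintained. Plants kept in greenhouse 13–15 d. Visual rating versus controls on a 0 (no effect) to 100 (complete control) scale.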

[18] = tested on: ducksalad (Heteranthera limosa); assay: Test B flooded paddy test; settings: Flood, 1000 g ai/ha; 0 to 100 scale where 0 is no effect and 100 is complete control; 13 to 15 d
How it was run: as §2

[19] = tested on: rice (Oryra sativa); assay: Test B flooded paddy test; settings: Flood, 1000 g ai/ha; 0 to 100 scale where 0 is no effect and 100 is complete control; 13 to 15 d
How it was run: as §2

[20] = tested on: sedge, umbrella (small-flower umbrella sedge, Cyperus difformis); assay: Test B flooded paddy test; settings: Flood, 1000 g ai/ha; 0 to 100 scale where 0 is no effect and 100 is complete control; 13 to 15 d
How it was run: as §2

[21] = 500 g ai/ha, postemergence, 0 to 100 scale, 0 no effect, 100 complete control
[22] = Postemergence, 125 g ai/ha, visual injury, 0 to 100 scale (0 no effect, 100 complete control), approx. 10 d
[23] = 1000 g ai/ha, postemergence, 0 to 100 scale, 0 no effect, 100 complete control

O=C1NCC(c2ccc(-c3ccccc3)cc2)C1C(=O)Nc1ccccc1F (racemic) [Compound 365]
Plant response rating, Barnyardgrass [1]: 0 | Barnyardgrass plant response rating (0 to 100 scale) ([1]; 500 g ai/ha): 0 | Plant response rating, Corn [2]: 0 | Corn plant response rating (0 to 100 scale) ([2]; 500 g ai/ha): 0 | Plant response rating, Crabgrass, Large [3]: 0 | Crabgrass, Large plant response rating (0 to 100 scale) ([3]; 500 g ai/ha): 0 | Plant response rating, Foxtail, Giant [4]: 0 | Foxtail, Giant plant response rating (0 to 100 scale) ([4]; 500 g ai/ha): 0 | Plant response rating, Morningglory [5]: 0 | Morningglory plant response rating (0 to 100 scale) ([5]; 500 g ai/ha): 0 | Plant response rating, Pigweed [6]: 0 | Pigweed plant response rating (0 to 100 scale) ([6]; 500 g ai/ha): 0 | Plant response rating, Velvetleaf [7]: 0 | Velvetleaf plant response rating (0 to 100 scale) ([7]; 500 g ai/ha): 0 | Plant response rating, Wheat [8]: 0 | Wheat plant response rating (0 to 100 scale) ([8]; 500 g ai/ha): 0 | Plant response rating, Barnyardgrass [9, 21]: 0 | Plant response rating, Barnyardgrass [9, 22]: 0 | Plant response rating, Corn [10, 21]: 0 | Plant response rating, Corn [10, 22]: 0 | Plant response rating, Crabgrass, Large [11, 21]: 0 | Plant response rating, Crabgrass, Large [11, 22]: 0 | Plant response rating, Foxtail, Giant [12, 21]: 0 | Plant response rating, Foxtail, Giant [12, 22]: 0 | Plant response rating, Morningglory [13, 21]: 0 | Plant response rating, Morningglory [13, 22]: 0 | Plant response rating, Pigweed [14, 21]: 0 | Plant response rating, Pigweed [14, 22]: 0 | Plant response rating, Velvetleaf [15, 21]: 0 | Plant response rating, Velvetleaf [15, 22]: 0 | Plant response rating, Wheat [16, 21]: 0 | Plant response rating, Wheat [16, 22]: 0 | Plant response rating, Barnyardgrass [17]: 0 | Plant response rating, Ducksalad [18]: 0 | Plant response rating, Rice [19]: 0 | Plant response rating, Sedge, Umbrella [20]: 0

O=C1NCC(c2ccc(-c3ccccc3)cc2)C1C(=O)Nc1cccc(F)c1F (racemic) [Compound 366]
Plant response rating, Barnyardgrass [1]: 0 | Barnyardgrass plant response rating (0 to 100 scale) ([1]; 500 g ai/ha): 0 | Plant response rating, Corn [2]: 0 | Corn plant response rating (0 to 100 scale) ([2]; 500 g ai/ha): 0 | Plant response rating, Crabgrass, Large [3]: 0 | Crabgrass, Large plant response rating (0 to 100 scale) ([3]; 500 g ai/ha): 0 | Plant response rating, Foxtail, Giant [4]: 0 | Foxtail, Giant plant response rating (0 to 100 scale) ([4]; 500 g ai/ha): 0 | Plant response rating, Morningglory [5]: 0 | Morningglory plant response rating (0 to 100 scale) ([5]; 500 g ai/ha): 0 | Plant response rating, Pigweed [6]: 0 | Pigweed plant response rating (0 to 100 scale) ([6]; 500 g ai/ha): 0 | Plant response rating, Velvetleaf [7]: 0 | Velvetleaf plant response rating (0 to 100 scale) ([7]; 500 g ai/ha): 0 | Plant response rating, Wheat [8]: 0 | Wheat plant response rating (0 to 100 scale) ([8]; 500 g ai/ha): 0 | Plant response rating, Barnyardgrass [9, 21]: 0 | Plant response rating, Barnyardgrass [9, 22]: 0 | Plant response rating, Corn [10, 21]: 0 | Plant response rating, Corn [10, 22]: 0 | Plant response rating, Crabgrass, Large [11, 21]: 0 | Plant response rating, Crabgrass, Large [11, 22]: 0 | Plant response rating, Foxtail, Giant [12, 21]: 0 | Plant response rating, Foxtail, Giant [12, 22]: 0 | Plant response rating, Morningglory [13, 21]: 0 | Plant response rating, Morningglory [13, 22]: 0 | Plant response rating, Pigweed [14, 21]: 0 | Plant response rating, Pigweed [14, 22]: 0 | Plant response rating, Velvetleaf [15, 21]: 0 | Plant response rating, Velvetleaf [15, 22]: 0 | Plant response rating, Wheat [16, 21]: 0 | Plant response rating, Wheat [16, 22]: 0 | Plant response rating, Barnyardgrass [17]: 0 | Plant response rating, Ducksalad [18]: 0 | Plant response rating, Rice [19]: 0 | Plant response rating, Sedge, Umbrella [20]: 0

N#CCN(C(=O)C1C(=O)NCC1c1ccc(F)c(F)c1)c1ccccc1[N+](=O)[O-] (stereo not shown) [Compound 713]
Barnyardgrass plant response rating (0 to 100 scale) ([1]; 1000 g ai/ha): 0 | Corn plant response rating (0 to 100 scale) ([2]; 1000 g ai/ha): 0 | Crabgrass, Large plant response rating (0 to 100 scale) ([3]; 1000 g ai/ha): 80 | Foxtail, Giant plant response rating (0 to 100 scale) ([4]; 1000 g ai/ha): 40 | Morningglory plant response rating (0 to 100 scale) ([5]; 1000 g ai/ha): 0 | Pigweed plant response rating (0 to 100 scale) ([6]; 1000 g ai/ha): 0 | Velvetleaf plant response rating (0 to 100 scale) ([7]; 1000 g ai/ha): 0 | Wheat plant response rating (0 to 100 scale) ([8]; 1000 g ai/ha): 0 | Plant response rating, Barnyardgrass [9, 23]: 0 | Plant response rating, Corn [10, 23]: 0 | Plant response rating, Crabgrass, Large [11, 23]: 0 | Plant response rating, Foxtail, Giant [12, 23]: 0 | Plant response rating, Morningglory [13, 23]: 0 | Plant response rating, Pigweed [14, 23]: 0 | Plant response rating, Velvetleaf [15, 23]: 0 | Plant response rating, Wheat [16, 23]: 0
